# Measured values published in patent US20090208448A1, “Inhibition of angiogenesis” (priority 2008, published 2009).
# “Also recorded” adds a separate entry of the source.
# What was measured:
# LNCaP xenograft tumors [1] = experiment: Fibroblast staining of tumor sections; type: in vivo, SCID mice; details: HFHC condition, p=0.03, n=55/group
# Description: (§1) Immunofluorescence. Tumor samples frozen in OCT were sectioned (3-20 μm thick), mounted on Superfrost slides (ThermoFisher Scientific, Waltham, Mass.), and air-dried for 30 min. Sections were then fixed using cold acetone (5 min), followed by 1:1 acetone:chloroform (5 min), and then acetone (5 min) or by using 4% PFA at room temp (30 min) followed by 0.025% PBS/Triton X-100 (5 min) to permeabilize the cells. Sections were washed with cold PBS 3× for 5 min each and were incubated in a protein blocking solution of PBS/Tween (0.1%) with 5% bovine serum albumin (BSA; Sigma) at room temp (30 min) and were then washed in cold PBS 3× for 5 min each. The appropriate primary antibodies diluted 1:200-1:1000 in blocking solution were incubated with the sections overnight at 4° C. Sections were washed 3× for 5 min in cold PBS, and incubated in blocking solution (10 min). The sections were then incubated with the appropriate fluorescent secondary reporter antibodies diluted 1:500-1:5000 in blocking solution at room temp (30 min) followed by washing 3× in PBS. Nuclei were counter-stained with DAPI. Double staining of CD31 with TSP-1 and CD31 with SMA were performed sequentially as described above. […] Ki67 positive cells and nuclei were quantified using AxioVision 4.0 software.
# LNCaP xenograft tumors [2] = experiment: Tumor hemoglobin quantification; type: in vivo, SCID mice; details: n=20
# Description: Hemoglobin Assay. Tumors were finely minced in 1 ml of fresh PBS on ice. The minced tissue suspensions were centrifuged at 10,000 g at 4° C. (2 min) and the supernatant was removed. The optical density (OD) of the clarified supernatants was read at 650 nm (background) and 530 nm (hemoglobin) using a spectrophotometer (Boyle, M. D., and Ohanian, S. H. 1980. Evidence for the influence of the initial complement components on the assembly and activity of the membrane attack complex. J Immunol 124:2824-2827; Gee, A. P., Boyle, M. D., and Borsos, T. 1980. Distinction between C8-mediated and C8/C9-mediated hemolysis on the basis of independent 86Rb and hemoglobin release. J Immunol 124:1905-1910).
# [3] = Serology (triglyceride, liver function tests) and feeding observation; type: in vivo, SCID mice
# Description: (§2) Mice and Tumor Xenografts. 5 week old SCID mice were obtained from the Massachusetts General Hospital and were fed a low fat/no cholesterol diet (LFNC) (Research Diets, New Brunswick, N.J. diet # D12102) for two weeks, blood was drawn from the saphenous tail vein and the serum cholesterol concentration was determined using the Infinity Cholesterol Liquid Stable Reagent (Thermo Electron Corp.). For intact (non-castrated) mice, the animals were divided into the high fat/high cholesterol diet (HFHC) (Research Diets, diet # D12108) and LFNC groups with and without ezetimibe (30 mg/kg/day; Schering-Plough, New Brunswick, N.J.) and the mice continued on these diets for four weeks. For castrated mice, the mice were divided into 4 groups, 2 groups were castrated, and 2 groups were left intact. The mice were fed either the LFNC, or a low fat/high cholesterol diet (LFHC) (Research Diets, diet #D12104) for 80 days. Xenografts were initiated by injecting LNCaP (2×10^6 per site) with 1:1 volume of Matrigel (BD BioSciences, San Jose, Calif.) into the 4 dorsal quadrants of each mouse. In order to eliminate any injection bias, the mice were randomized prior to implantation and the implanter was blinded to which group each mouse was assigned. All animal procedures were done in compliance with Children's Hospital Boston's animal care and use policies. Tumors were measured daily from the initiation of the first palpable tumors and the mice sacrificed prior to reaching the maximum tumor burden (13-23 days post implantation). Terminal bleeds were taken (Cardiac puncture) for serology (triglyceride, bilirubin and other liver function tests were performed in the Dept. of Laboratory Medicine, Children's Hospital Boston, androgen levels were determined by a testosterone EIA, Diagnostic Systems Laboratories, Webster, Tex.). Tumors were removed, measured, weighed and either placed in OCT solution (Tissue-Tek, Torrance, Calif.) or snap frozen.
# serum cholesterol = experiment: Serum cholesterol levels in diet/ezetimibe SCID mouse cohorts (Infinity colorimetric assay); type: in vivo, SCID mice; details: ezetimibe 30 mg/kg/d, 4 weeks, both LFNC and HFHC diet groups, drug F=23.48, p<0.001
# Description: as §2, with “The mice were fed either the LFNC, or a low fat/high cholesterol diet (LFHC) (Research Diets, diet #D12104) for 80 days. Xenografts were initiated by injecting LNCaP (2×10^6 per site) with 1:1 volume of Matrigel (BD BioSciences, San Jose, Calif.) into the 4 dorsal quadrants of each mouse. In order to eliminate any injection bias, the mice were randomized prior to implantation and the implanter was blinded to which group each mouse was assigned. All animal procedures were done in compliance with Children's Hospital Boston's animal care and use policies.” left out, “frozen. […]” for “frozen.”
# LNCaP xenograft tumors [4] = experiment: Tumor membrane cholesterol analysis; type: in vivo, SCID mice; details: ezetimibe main effect p<0.0001, n=9/group
# Description: Tumor cholesterol analysis. Tumors were finely minced in phosphate buffered saline (PBS) on ice and the level of cholesterol was determined as described previously (Boucher, K., Siegel, C. S., Sharma, P., Hauschka, P. V., and Solomon, K. R. 2006. HMG-CoA reductase inhibitors induce apoptosis in pericytes. Microvasc Res 71:91-102).
# LNCaP xenograft tumors [5] = experiment: Microvessel density (MVD), CD31 analysis; type: in vivo, SCID mice; details: ezetimibe p=0.013, larger effects with HFHC (p=0.01)
# Description: as §1
# LNCaP xenograft tumors [6] = experiment: MVD, caveolin-1 analysis (immunoblotting and immunofluorescence); type: in vivo, SCID mice
# Description: as §1, with “min).” for “min). The sections were then incubated with the appropriate fluorescent secondary reporter antibodies diluted 1:500-1:5000 in blocking solution at room temp (30 min) followed by washing 3× in PBS. Nuclei were counter-stained with DAPI. Double staining of CD31 with TSP-1 and CD31 with SMA were performed sequentially as described above.”
# Lysates and Immunoblotting. […] Protein concentrations were determined by microBCA (Pierce/Thermo Scientific) and equal amounts of the lysates were subjected to SDS-PAGE and immunoblotting as described previously (Zhuang, L., Kim, J., Adam, R. M.-, Solomon, K. R., and Freeman, M. R. 2005. Cholesterol targeting alters lipid raft composition and cell survival in prostate cancer cells and xenografts. J Clin Invest 115:959-968).
# LNCaP xenograft tumors [7] = experiment: Tumor cell apoptosis (TUNEL staining); type: in vivo, SCID mice; details: ezetimibe main effect p<0.0001, no synergy with diet (p=0.85)
# Description: Apoptosis. Percentage of apoptotic cells in tumor sections was determined by TUNEL assay using the In Situ Cell Death Detection Kit (Roche Diagnostics Corp. Indianapolis, Ind.). Briefly, frozen tumor sections were fixed in 4% paraformaldehyde (PFA), permeabilized and the DNA stained with fluorescein following the manufacturer's instructions. Nuclei were counterstained with DAPI (Vector Labs, Burlingame, Calif.). Images were captured using a Zeiss microscope and the positive cells and nuclei were counted using Axiovision software 4.0.
# [8] = literature (Jurado 2004; Knopp 2003); cited from earlier work
# LNCaP xenograft tumors [9] = experiment: Pericyte coverage of microvessels (SMA staining); type: in vivo, SCID mice; details: ezetimibe groups, p<0.0001
# Description: as §1
# thrombospondin-1 (TSP-1) = experiment: Thrombospondin-1 (TSP-1) levels in tumor sections; type: in vivo, SCID mice; details: ezetimibe p<0.0001
# Description: as §1
# [10] = tested on: LNCaP human prostate tumor xenografts; experiment: Growth of implanted LNCaP prostate tumor xenografts (volume, wet weight, take); type: in vivo, SCID mice
# Description: as §2
# Following alteration of cholesterol levels, the mice from Example 3 were injected subcutaneously with 2×10^6 LNCaP cells in their flanks (4 tumors/mouse). Regimens were continued following implantation, and the experiment continued for 13 days following the initial appearance of tumors. Tumor volume was measured daily (FIG. 2B). […] The overall effect of diet and ezetimibe was independent and additive, not synergistic. […] Tumor take was >95% in all groups and no significant differences in tumor take were observed.
# LNCaP xenograft tumors [11] = experiment: Tumor cell proliferation (Ki67 staining); type: in vivo, SCID mice
# Description: Immunofluorescence. Tumor samples frozen in OCT were sectioned (3-20 μm thick), mounted on Superfrost slides (ThermoFisher Scientific, Waltham, Mass.), and air-dried for 30 min. Sections were then fixed using cold acetone (5 min), followed by 1:1 acetone:chloroform (5 min), and then acetone (5 min) or by using 4% PFA at room temp (30 min) followed by 0.025% PBS/Triton X-100 (5 min) to permeabilize the cells. Sections were washed with cold PBS 3× for 5 min each and were incubated in a protein blocking solution of PBS/Tween (0.1%) with 5% bovine serum albumin (BSA; Sigma) at room temp (30 min) and were then washed in cold PBS 3× for 5 min each. The appropriate primary antibodies diluted 1:200-1:1000 in blocking solution were incubated with the sections overnight at 4° C. Sections were washed 3× for 5 min in cold PBS, and incubated in blocking solution (10 min). The sections were then incubated with the appropriate fluorescent secondary reporter antibodies diluted 1:500-1:5000 in blocking solution at room temp (30 min) followed by washing 3× in PBS. Nuclei were counter-stained with DAPI. Double staining of CD31 with TSP-1 and CD31 with SMA were performed sequentially as described above. Blood vessel analysis was done using IPLab software (BD Biosciences Bioimaging, Rockville, Md.) as previously described (Bielenberg, D. R., Hida, Y., Shimizu, A., Kaipainen, A., Kreuter, M., Kim, C. C., and Klagsbrun, M. 2004. Semaphorin 3F, a chemorepulsant for endothelial cells, induces a poorly vascularized, encapsulated, nonmetastatic tumor phenotype. J Clin Invest 114:1260-1271). Thombospndin-1 (TSP-1) analysis was done using the outline spline in AxioVision 4.0 software. Ki67 positive cells and nuclei were quantified using AxioVision 4.0 software.
# VEGF or bFGF = VEGF or bFGF expression in the cohorts; type: in vivo, SCID mice; details: between the diet/drug cohorts, data not shown
compound,measurement,setting,value
O=C1[C@H](CC[C@H](O)c2ccc(F)cc2)[C@@H](c2ccc(O)cc2)N1c1ccc(F)cc1 [ezetimibe],relative level of fibroblast staining,LNCaP xenograft tumors [1],statistically significant ezetimibe effect
same,relative hemoglobin/mg tumor tissue,LNCaP xenograft tumors [2]; HFHC+Z vs HFHC,statistical significance
same,relative hemoglobin/mg tumor tissue,LNCaP xenograft tumors [2]; LFNC vs LFNC+Z,not statistically different
same,"liver function (AST, ALP, bilirubin etc)","[3]; any mouse, all groups, data not shown",no liver dysfunction
same,serum triglyceride levels,"[3]; ezetimibe cohorts, data not shown",no significant reduction; also recorded: nor were triglyceride levels significantly reduced
same,feeding behavior,"[3]; observation, calorie intake 21.18 Kcal/d",did not alter feeding behavior
same,serum cholesterol,serum cholesterol,significant effects
same,serum cholesterol,serum cholesterol; listed as Ezetimibe,significant reductions
same,tumor cholesterol levels (membranes),LNCaP xenograft tumors [4],highly significant main effects; also recorded: independently affected
same,microvessel density (relative level of CD31 staining),LNCaP xenograft tumors [5],highly significant main effect; also recorded: significantly suppressed
same,"average caveolin-1 signal, immunoblotting","LNCaP xenograft tumors [6]; both diet conditions, p=0.027, n=6/group",significant drug effect in lowering caveolin
same,"relative level of caveolin-1 staining, immunofluorescence","LNCaP xenograft tumors [6]; ezetimibe p<0.0001, n=43/group",highly significant main effects
same,tumor cell apoptosis (relative level of TUNEL staining),LNCaP xenograft tumors [7],highly significant main effects; also recorded: significantly increased
same,triglyceride levels in humans,[8],modest effect
same,pericyte coverage of vessels (relative level of SMA staining),LNCaP xenograft tumors [9],highly significant main effects; also recorded: dramatically increased
same,TSP-1 levels in tumors (relative level of TSP-1 staining),thrombospondin-1 (TSP-1),highly significant main effects; also recorded: enhanced
same,tumor wet weight at sacrifice,"[10]; LFNC diet with drug, p=0.021 vs HFHC (0.88±0.71 g)",0.63 ± 0.55 g
same,tumor wet weight at sacrifice,"[10]; LFNC+Z group, p=0.021 vs HFHC (0.88±0.71)",0.63±0.55 average grams/tumor site
same,tumor take,"[10]; all diet/drug groups, no significant differences",> 95%
same,tumor growth rates (tumor volume),"[10]; ezetimibe 30 mg/kg/day added to diet, 13 days from first appearance of tumors, p=0.035",Significantly reduced
same,relative level of Ki67 staining,LNCaP xenograft tumors [11]; HFHC diet w/ezetimibe (HFHC alone 41.16),30.32 (95% CI; 26.96-33.68)
same,relative level of Ki67 staining,LNCaP xenograft tumors [11]; LFNC diet w/ezetimibe (LFNC alone 28.78),25.57 (95% CI; 22.21-28.93)
same,"tumor cell proliferation (Ki67), effect in words","LNCaP xenograft tumors [11]; ezetimibe by diet interaction p=0.027, magnitude depends on the diet",significant effect on lowering proliferation
same,VEGF or bFGF expression,VEGF or bFGF,no differences
